From patent US20250092065A1, “2-(INDAZOL-5-YL)-6-(PIPERIDIN-4-YL)-1,7-NAPHTHYRIDINE DERIVATIVES AND RELATED COMPOUNDS AS MODULATORS FOR SPLICING NUCLEIC ACIDS AND FOR THE TREATMENT OF PROLIFERATIVE DISEASES” (REMIX THERAPEUTICS INC., priority 2022, published 2025)
Read-outs that look alike come from different tables or passages of the source.

Columns and labels:
HTT mRNA = assay: RT-qPCR splicing assay, HTT mRNA canonical (CJ) and alternative (AJ) junction; type: cell-based, human; details: Homo sapiens; for AC50: HTT alternative junction mRNA, read-out: HTT AJ (increase in AJ mRNA, AC50)
Protocol: (§1) Compounds described herein were used to modulate RNA transcript abundance in cells. The expression of a target mRNA was measured by detecting the formation of an exon-exon junction in the canonical transcript (CJ). A compound mediated exon-inclusion event was detected by observing an increase in formation of a new junction with an alternative exon (AJ). Real-time qPCR assays were used to detect these splicing switches and interrogate the potency of various compounds towards different target genes. A high-throughput real time quantitative PCR (RT-qPCR) assay was developed to measure these two isoforms of the mRNA (CJ and AJ) for exemplary genes, such as HTT, SMN2, and MYB, together with a control housekeeping gene, GAPDH or GUSB or PPIA, used for normalization. Briefly, the A673 or K562 cell line was treated with various compounds described herein (e.g., compounds of Formula (I)). After treatment, the levels of the HTT, MYB, or SMN2 mRNA targets were determined from each sample of cell lysate by cDNA synthesis followed by qPCR.
(§2) The A673 cell line was cultured in DMEM with 10% FBS. Cells were diluted with full growth media and plated in a 96-well plate (15,000 cells in 100 ul media per well). The plate was incubated at 37° C. with 5% CO2 for 24 hours to allow cells to adhere. An 11-point 3-fold serial dilution of the compounds was made in DMSO then diluted in media in an intermediate plate. Compounds were transferred from the intermediate plate to the cell plate with the top dose at a final concentration of 10 uM in the well. Final DMSO concentration was kept at or below 0.25%. The cell plate was returned to the incubator at 37° C. with 5% CO2 for an additional 24 hours.
(§3) The K562 cell line was cultured in IMDM with 10% FBS. For K562, cells were diluted with full growth media and plated in either a 96-well plate (50,000 cells in 50 uL media per well) or a 384-well plate (8,000-40,000 cells in 45 uL media per well). An 11-point 3-fold serial dilution of the compounds were made in DMSO then diluted in media in an intermediate plate. Compound was transferred from the intermediate plate to the cell plate with the top dose at a final concentration of 10 uM in the well. Final DMSO concentration was kept at or below 0.25%. Final volume was 100 uL for 96-well plate and 50 uL for 384-well plate. The cell plate was then placed in an incubator at 37° C. with 5% CO2 for 24 hours.
(§4) The cells were then gently washed with 50 uL-100 uL cold PBS before proceeding to addition of lysis buffer. 30 uL-50 μL of room temperature lysis buffer with DNAse I (and optionally RNAsin) was added to each well. Cells were shaken/mixed thoroughly at room temperature for 5-10 minutes for lysis to take place and then 3 uL-5 μL of room temperature stop solution was added and wells were shaken/mixed again. After 2-5 minutes, the cell lysate plate was transferred to ice for RT-qPCR reaction setup. The lysates could also be frozen at −80° C. for later use.
(§5) In some cases, a direct lysis buffer was used. An appropriate volume of 3× lysis buffer (10 mM Tris, 150 mM NaCl, 1.5%-2.5% Igepal and 0.1-1 U/uL RNAsin, pH 7.4) was directly added to either K562 or A673 cells in media and mixed by pipetting 3 times. The plates were then incubated at room temperature with shaking/rocking for 20-50 minutes to allow for lysis to take place. After this time, the cell lysate plate was transferred to ice to set up for the RT-qPCR reactions. The lysates could also be frozen at −80° C. for later use.
(§6) To set up 10 uL RT-qPCR reactions, cell lysates were transferred to 384-well qPCR plates containing the master mix according to the table below. The plates were sealed, gently vortexed, and spun down before the run. The volumes were adjusted accordingly in some instances where the reaction was carried in 20 μL. The table below summarizes the components of the RT-qPCR reactions:
(§7) The RT-qPCR reaction was performed using a QuantStudio (ThermoFisher) under the following fast cycling conditions. […]

MYB = assay: HiBiT protein abundance assay, MYB (K562 HiBiT knock-in); type: cell-based, human; details: HiBiT knock-in K562 cells, 24 hours, top dose 10 μM
Protocol: (§8) Compounds described herein were used to screen for effects on quantitative protein abundance using a HiBit assay system (Promega). Quantitative protein abundance was determined by measuring the protein levels of HiBit-tagged protein targets expressed in cell culture via luminescence using the Nano-Glo HiBiT Lytic Detection System, which uses a split complementation assay format to reconstitute NanoBiT enzyme to generate a luminescent signal. A protein abundance assay was developed such that endogenous protein targets could be modified with the HiBiT peptide tag and their abundance could be assessed after compound treatment. Briefly, K562 cell lines containing a HiBiT-modification were treated with various compounds described herein (e.g., compounds of Formulas (I), or (II)). After treatment for 24 hours, the protein abundance of a specific target was determined by measuring luminescence.
(§9) Cells were maintained in IMIDM with 10% FBS. Before the assay, cells were diluted with […] growth media (IMIDM+[…] media) and were seeded in a 384-well plate at a density of 10000 cells/well (for each cell line listed in Table 6). Each compound was prepared as a 10-point 3-fold serial dilution in DMSO with the top dose at a final concentration of 10 μM in the well. Unmodified K562 cells were added at the previously specified density with DMSO to serve as an assay baseline and positive control (PC) and DMSO only with the respective modified cell lines was added to the negative control (NC) columns. Final DMSO concentration was kept at or below 0.25%. Treated cell plates were placed in an incubator at 37° C. with […] for 24 hours. After 24 hours, 25 μL of Complete HiBit Lytic reagent was added to each well at room temperature (e.g. one plate requiring 10 mL Lytic Buffer, 100 μL LgBiT Protein, 200 μL Lytic Substrate), shaken for 5 minutes at 600 RPM, then left to sit for 10 minutes for signal to stabilize before reading on a Spark Cyto plate reader (Tecan) with a 500 ms measurement time.
(§10) To determine compound effects on protein abundance of each target in Table 6, the percent response for each respective cell line was calculated at each compound concentration as follows:
(§11) % response=100*(S−PC)(NC−PC)
(§12) For the normalized response at each concentration, a four-parameter logistical regression was fit to the data and the response was interpolated at the […] to determine a concentration for protein abundance at 50% (IC50) the untreated control.

Target C = assay: HiBiT protein abundance assay, Target C (K562 HiBiT knock-in); type: cell-based, human; details: HiBiT knock-in K562 cells, 24 hours, top dose 10 μM
Protocol: as §9, §10, §11, §12

K562 cells = assay: Cell Titer Glo 2.0 cell viability (toxicity) assay, K562; details: 500 cells/well, 72 hours
HTT = assay: HiBiT protein abundance assay, HTT (K562 HiBiT knock-in); type: cell-based, human; details: HiBiT knock-in K562 cells, 24 hours, top dose 10 μM
Protocol: as §8, §9, §10, §11, §12

SMN2 mRNA = assay: RT-qPCR splicing assay, SMN2 mRNA; type: cell-based, human; details: Homo sapiens, canonical junction qPCR panel, Table 4; read-out: SMN2 IC50 (decrease in CJ mRNA levels)
Protocol: as §1, §2, §3, §4, §5, §6, §7

MYB mRNA = assay: RT-qPCR splicing assay, MYB mRNA canonical (CJ) and alternative (AJ) junction; type: cell-based, human; details: Homo sapiens; for AC50: MYB alternative junction mRNA, read-out: MYB AJ (increase in AJ mRNA, AC50)
Protocol: as §1, §2, §3, §4, §5, §6, §7

[1] = HTT canonical junction mRNA, RT-qPCR, read-out: HTT CJ (decrease in CJ mRNA levels, IC50)
[2] = canonical junction qPCR panel, Table 4, read-out: HTT IC50 (decrease in CJ mRNA levels)
[3] = MYB canonical junction mRNA, RT-qPCR, read-out: MYB CJ (decrease in CJ mRNA levels, IC50)
[4] = canonical junction qPCR panel, Table 4, read-out: MYB IC50 (decrease in CJ mRNA levels)

SMILES	IC50 (HTT mRNA; [1]) [nM]	IC50 (HTT mRNA; [2]) [nM]	IC50 (MYB) [nM]	IC50 (Target C) [nM]	IC50 (HTT) [nM]	IC50 (SMN2 mRNA) [nM]	IC50 (MYB mRNA; [3]) [nM]	IC50 (MYB mRNA; [4]) [nM]	AC50 (HTT mRNA; RT-qPCR) [nM]	Effect of Exemplary Compounds on Cell Viability, K562 (K562 cells)	AC50 (MYB mRNA; RT-qPCR) [nM]
Cn1cc2c(O)c(-c3cc4ccc(C5CCNCC5)nc4cn3)ccc2n1 [Compound 106]	1000 to 10000	1000 to 10000	1000 to 10000	1000 to 10000	1000 to 10000	100 to 1000	1000 to 10000	1000 to 10000	1000 to 10000	B (B represents 100-1000 nM)	100 to 1000
Cn1cc2c(O)c(-c3ncc4nc(C5CCNCC5)ccc4n3)ccc2n1 [Compound 108]	1000 to 10000	1000 to 10000	100 to 1000	100 to 1000	100 to 1000	< 100	1000 to 10000	1000 to 10000	1000 to 10000	B (B represents 100-1000 nM)	1000 to 10000
Cn1cc2cc(-c3ccc4c(F)c(C5CCNCC5)ccc4n3)c(O)cc2n1 [Compound 115]	1000 to 10000	1000 to 10000	< 100	100 to 1000	100 to 1000	< 100	100 to 1000	100 to 1000	1000 to 10000	B (B represents 100-1000 nM)	100 to 1000
CN1CCN(c2ccc3nc(-c4cc5cn(C)nc5cc4O)ccc3n2)CC1 [Compound 116]	1000 to 10000	1000 to 10000	1000 to 10000	1000 to 10000	1000 to 10000	< 100	100 to 1000	100 to 1000	1000 to 10000	C (C represents 1000-9999 nM)	1000 to 10000
CC1CN(c2ccc3nc(-c4cc5cn(C)nc5cc4O)ccc3n2)CCN1 (stereo not drawn) [Compound 117]	1000 to 10000	1000 to 10000	100 to 1000	1000 to 10000	100 to 1000	< 100	100 to 1000	100 to 1000	1000 to 10000	B (B represents 100-1000 nM)	100 to 1000
CC1CN(c2ccc3nc(-c4cc5cn(C)nc5cc4O)ccc3n2)CCN1C (stereo not drawn) [Compound 118]	1000 to 10000	1000 to 10000	100 to 1000	> 10000	1000 to 10000	< 100	100 to 1000	100 to 1000	1000 to 10000	C (C represents 1000-9999 nM)	1000 to 10000

More lines, main results first:

IC50 (HTT mRNA; [1]) [nM]	IC50 (HTT mRNA; [2]) [nM]	IC50 (MYB) [nM]	IC50 (Target C) [nM]	IC50 (HTT) [nM]	IC50 (SMN2 mRNA) [nM]	IC50 (MYB mRNA; [3]) [nM]	IC50 (MYB mRNA; [4]) [nM]	SMILES	AC50 (HTT mRNA; RT-qPCR) [nM]	Effect of Exemplary Compounds on Cell Viability, K562 (K562 cells)	AC50 (MYB mRNA; RT-qPCR) [nM]
< 100	< 100	< 100	< 100	< 100	< 100	< 100	< 100	Cn1cc2cc(-c3ccc4nc(C5CCNCC5)ccc4n3)c(O)cc2n1 [Compound 100]	100 to 1000	B (B represents 100-1000 nM)	1000 to 10000
< 100	< 100	< 100	< 100	< 100	< 100	< 100	< 100	Cc1c(O)c(-c2ccc3nc(C4CCNCC4)ccc3n2)cc2cn(C)nc12 [Compound 101]	< 100	A (A represents <100 nM)	< 100
< 100	< 100	< 100	< 100	< 100	< 100	< 100	< 100	Cn1cc2cc(-c3ccc4nc(C5CCNCC5)ccc4n3)c(O)c(F)c2n1 [Compound 102]	< 100	A (A represents <100 nM)	< 100
100 to 1000	100 to 1000	100 to 1000	100 to 1000	100 to 1000	< 100	100 to 1000	100 to 1000	Cn1cc2cc(-c3ncc4nc(C5CCNCC5)ccc4n3)c(O)cc2n1 [Compound 107]	100 to 1000	B (B represents 100-1000 nM)	100 to 1000
< 100	< 100	< 100	< 100	< 100	< 100	< 100	< 100	Cn1cc2cc(-c3ccc4cc(C5CCNCC5)ccc4n3)c(O)cc2n1 [Compound 109]	100 to 1000	B (B represents 100-1000 nM)	100 to 1000
100 to 1000	100 to 1000	100 to 1000	100 to 1000	100 to 1000	< 100	100 to 1000	100 to 1000	CCC1CN(c2ccc3nc(-c4cc5cn(C)nc5cc4O)ccc3n2)CCN1 (stereo not drawn) [Compound 119]	1000 to 10000	B (B represents 100-1000 nM)	100 to 1000
